Assay results from paper PMC2241863 (Nucleic Acids Research, 2007).

Columns and labels:
E. coli RPR = conditions: cited from earlier work
bacterial RNase P = conditions: 'low-salt' buffer, cited from earlier work; for IC50: read-out: IC50 for inhibition of bacterial RNase P
[1] = system: E. coli RNase P holoenzyme; conditions: cited from earlier work
human RNase P = conditions: cited from earlier work
[2] = system: E. coli RNase P holoenzyme; assay: E. coli RNase P holoenzyme ptRNATyr processing assay, 'high-salt' buffer; format: biochemical, Escherichia coli; conditions: 1 mM added to assay

| Structure (SMILES) | IC50 (bacterial RNase P) [µM] | Effect on E. coli RNase P holoenzyme activity [2] | further results |
| --- | --- | --- | --- |
| NC[C@@H]1O[C@H](O[C@H]2[C@@H](O)[C@H](O[C@@H]3[C@@H](O)[C@H](N)C[C@H](N)[C@H]3O[C@H]3O[C@H](CN)[C@@H](O)[C@H](O)[C@H]3N)O[C@@H]2CO)[C@H](N)[C@@H](O)[C@@H]1O [NeoB, neomycin B] | 60 | – | Increase in IC50 with mutations in E. coli RPR L15 loop (E. coli RPR; L15 mutations that weaken Mg2+ binding): 3 fold; Increase in IC50 in 'high-salt' instead of 'low-salt' buffer [1]: 7 fold |
| N=C(N)NCCC[C@H](N)C(=O)NC[C@@H]1O[C@H](O[C@H]2[C@@H](O)[C@H](O[C@@H]3[C@@H](O)[C@H](NC(=O)[C@@H](N)CCCNC(=N)N)C[C@H](NC(=O)[C@@H](N)CCCNC(=N)N)[C@H]3O[C@H]3O[C@H](CNC(=O)[C@@H](N)CCCNC(=N)N)[C@@H](O)[C@H](O)[C@H]3NC(=O)[C@@H](N)CCCNC(=N)N)O[C@@H]2CO)[C@H](NC(=O)[C@@H](N)CCCNC(=N)N)[C@@H](O)[C@@H]1O [NeoR6] | 0.125 | – | Potency of NeoR6 relative to NeoB in inhibiting bacterial RNase P (bacterial RNase P): 500 fold; Effectiveness against human RNase P compared with bacterial RNase P (human RNase P): not as effective |
| NC[C@@H]1O[C@H](O[C@H]2[C@@H](O)[C@H](O[C@@H]3[C@@H](O)[C@H](N)C[C@H](N)[C@H]3O[C@H]3O[C@H](CO)[C@@H](O)[C@H](O)[C@H]3N)O[C@@H]2CO)[C@H](N)[C@@H](O)[C@@H]1O [Par, paromomycin] | – | – | Fold weaker than NeoB in inhibiting bacterial RPR (E. coli RPR): 6 fold |
| N=C(N)NCCC[C@H](N)C(=O)O [arginine] | – | no effect | – |
| N=C(N)N [guanidine] | – | no effect | – |
| NCCCC[C@H](N)C(=O)O [lysine] | – | no effect | – |
